14 compounds from patent US20230203041A1, “ANTAGONISTS OF THE ADENOSINE A2A RECEPTOR” (AdoRx Therapeutics Limited, priority 2020, published 2023) can be followed below.

For assay [1], the target named is T1, human Adenosine A2a receptor (Homo sapiens, UniProt P29274).
T1 construct: expressed in transfected cells; host or cells: CHO cell membranes
The assay can be described thus: Adenosine receptor TR-FRET binding assay (CA200645 displacement), A2a. Particulars: 100 nM CA200645, CHO cell membranes, 2 hours at room temperature.

The target in assay [2] is T2, human Adenosine A2b receptor (Homo sapiens, UniProt P29275).
T2 construct: expressed in transfected cells; host or cells: CHO cell membranes
T2 sequence (P29275 1-332): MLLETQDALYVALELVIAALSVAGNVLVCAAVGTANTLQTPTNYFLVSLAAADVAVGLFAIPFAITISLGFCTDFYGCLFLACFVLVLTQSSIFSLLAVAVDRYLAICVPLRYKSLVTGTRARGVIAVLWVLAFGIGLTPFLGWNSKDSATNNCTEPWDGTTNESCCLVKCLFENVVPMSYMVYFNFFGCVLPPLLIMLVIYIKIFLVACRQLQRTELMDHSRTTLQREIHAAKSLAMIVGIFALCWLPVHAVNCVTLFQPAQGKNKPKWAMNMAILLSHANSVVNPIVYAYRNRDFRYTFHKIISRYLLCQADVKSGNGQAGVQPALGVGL
The assay can be described thus: Adenosine receptor TR-FRET binding assay (CA200645 displacement), A2b. Particulars: 30 nM CA200645, CHO cell membranes, 2 hours at room temperature.

The test system of assay [3] is human PBMCs. Kind of assay: CD3/CD28 stimulated IL-2 release NECA reversal assay in human PBMCs.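 Also: dose-response as % inhibition where 100% equals no-NECA control wells with CD3/CD28.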 The format is cell-based. The conditions noted are these: PBMC, CD3/CD28 antibody stimulated, 1 uM NECA, 24 hours, IL-2 in culture supernatant. The procedure, abridged: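 PBMCs from citrated donor blood, 50,000 cells/well on plate-bound CD3 antibody (1 ug/ml), with 1 ug/ml CD28 antibody, 1 uM NECA and antagonist at 0.003-10 μM final. After 24 h at 37° C, supernatant IL-2 was measured by MSD immunoassay.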

In assay [4] the test system is CD8+ T cells in human whole blood. The assay can be described thus: Measurement of pCREB in CD8+ T cells in human whole blood. Particulars: T-cell, 1 h; heparinised human whole blood, rolipram, 3 μM NECA, 60 min, phospho-CREB in CD8+ T cells by FACS. It is filed as cell-based. An outline of the steps: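 Heparinised human whole blood preincubated 20 min at 37 °C with serially diluted A2a antagonists plus rolipram, then stimulated 60 min with 3 μM NECA (final). After fixation and RBC lysis, permeabilized leukocytes stained for phospho-CREB and CD8; pCREB in CD8+ T cells read by flow cytometry.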

Assay [5] addresses T3, human Adenosine A1 receptor (Homo sapiens, UniProt P30542).
T3 sequence (P30542 1-326): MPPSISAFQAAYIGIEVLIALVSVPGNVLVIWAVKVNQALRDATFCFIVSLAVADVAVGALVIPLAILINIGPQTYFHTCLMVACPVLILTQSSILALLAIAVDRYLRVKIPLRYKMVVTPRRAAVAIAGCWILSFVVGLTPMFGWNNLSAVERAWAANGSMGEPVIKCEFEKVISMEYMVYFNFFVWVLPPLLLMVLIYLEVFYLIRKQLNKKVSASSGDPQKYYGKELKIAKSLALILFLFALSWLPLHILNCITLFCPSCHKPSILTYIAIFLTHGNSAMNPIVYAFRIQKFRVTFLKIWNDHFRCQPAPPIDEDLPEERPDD
Kind of assay: Adenosine receptor TR-FRET binding assay (CA200645 displacement), A1.
Protocol: All FRET binding experiments were conducted at room temperature in white 384-well plates, in assay binding buffer containing 1×LabMed (Cisbio, France), 100 μg/mL saponin, 1% DMSO and 0.02% pluronic acid. Binding of the fluorescently labelled Adenosine receptor antagonist XAC (CA200645, FRET acceptor) to terbium-labelled A1, A2a, A2b and A3 adenosine receptors (FRET donors) was detected by time-resolved FRET due to the close proximity of the donor and acceptor in a binding event. To investigate the ability of unlabelled test compounds to bind to Adenosine A1, A2a, A2b and A3 receptors, dose response curves were constructed that determined the ability of a range of concentrations to inhibit the binding of 30 nM CA200645 to the A2b receptor and 100 nM CA200645 to the A1, A2a, and A3 receptor.
Serial dilution (1:3 dilutions) of test compounds in neat DMSO and transfer of a 400 nL sample of test compound into the assay plate was carried out using the Mosquito (TTP Labtech, UK). The compound samples were incubated for 2 hours at room temperature with a fixed concentration of CA200645 defined for each receptor (see above) and CHO cell membranes containing the human Adenosine A1 (0.5 μg/well), A2a (0.3 μg/well), A2b (1 μg/well) or A3 (1 μg/well) receptor in 40 μL of assay buffer. Total and non-specific binding of CA200645 was determined in the absence and presence of 10 μM XAC, respectively. Following 2 hours incubation, the level of CA200645 binding was detected on a Pherastar FSX (BMG Labtech, Germany) using standard TR-FRET settings. The terbium donor was excited with three laser flashes at a wavelength of 337 nm, and donor and acceptor emission was detected at 620 nm and 665 nm wavelengths, respectively. FRET ratios were obtained by multiplying the acceptor/donor ratio value by 10,000. Specific binding was determined by subtracting the non-specific binding FRET ratio from the total binding FRET ratio. Compound IC50 curves were analysed using GraphPad Prism 7.0 (GraphPad, USA) and Ki affinity values were determined from the obtained IC50 values using the method of Cheng and Prusoff.

Assay [6] deals with T4, human Adenosine A3 receptor (Homo sapiens, UniProt P0DMS8).
T4 sequence (P0DMS8 1-318): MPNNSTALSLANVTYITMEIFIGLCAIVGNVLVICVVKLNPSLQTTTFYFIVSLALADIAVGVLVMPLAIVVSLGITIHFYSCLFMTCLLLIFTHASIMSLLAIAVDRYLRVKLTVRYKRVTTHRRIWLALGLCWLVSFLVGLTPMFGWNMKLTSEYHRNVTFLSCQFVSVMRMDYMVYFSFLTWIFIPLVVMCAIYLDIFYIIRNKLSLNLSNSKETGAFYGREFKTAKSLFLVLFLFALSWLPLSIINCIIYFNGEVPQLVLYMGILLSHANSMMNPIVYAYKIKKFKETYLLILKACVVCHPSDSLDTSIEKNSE
Kind of assay: Adenosine receptor TR-FRET binding assay (CA200645 displacement), A3.

T1 sequence (P29274 whole entry): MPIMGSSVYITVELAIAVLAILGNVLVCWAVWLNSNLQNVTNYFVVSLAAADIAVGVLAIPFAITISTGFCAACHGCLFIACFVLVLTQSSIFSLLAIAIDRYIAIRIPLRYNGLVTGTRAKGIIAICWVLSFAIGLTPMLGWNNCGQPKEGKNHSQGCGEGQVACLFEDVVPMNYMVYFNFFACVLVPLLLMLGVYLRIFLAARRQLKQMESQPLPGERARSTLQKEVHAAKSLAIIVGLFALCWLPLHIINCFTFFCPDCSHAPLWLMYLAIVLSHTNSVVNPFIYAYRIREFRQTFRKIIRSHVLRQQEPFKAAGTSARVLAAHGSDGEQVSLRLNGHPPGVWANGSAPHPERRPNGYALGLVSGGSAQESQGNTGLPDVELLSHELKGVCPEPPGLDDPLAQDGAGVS

Regarding `Cc1cc(-c2c(-c3cccc(C#N)c3)nn3ccc(C(=O)NC[C@@H](O)CO)nc23)cc(Cl)n1` [Example 6.15, 3-(2-Chloro-6-methyl-4-pyridyl)-2-(3-cyanophenyl)-N-[(2R)-2,3-dihydroxypropyl]pyrazolo[1,5-a]pyrimidine-5-carboxamide], the Ki is 0.7 nM in assay [1], 3 nM in assay [2], 115 nM in assay [5] and over 1000 nM in assay [6]. Further, the half-maximal inhibitory concentration (IC50) in assay [3] was 14 nM; in assay [4] it was 240 nM.
For `Cc1cc(-c2c(-c3cccc(C#N)c3)nn3ccc(C(=O)N(C)CC(C)(C)O)nc23)cc(Cl)n1` [Example 6.18, 3-(2-Chloro-6-methyl-4-pyridyl)-2-(3-cyanophenyl)-N-(2-hydroxy-2-methyl-propyl)-N-methyl-pyrazolo[1,5-a]pyrimidine-5-carboxamide], the Ki is 4.2 nM in assay [1], 13 nM in assay [2], 125 nM in assay [5] and over 1000 nM in assay [6]. In addition, the IC50 in assay [3] was 93 nM; in assay [4], 1690 nM.
`Cc1cc(-c2c(-c3cccc(C#N)c3)nn3ccc(C(=O)N[C@H]4C[C@H](O)C4)nc23)cc(Cl)n1` [Example 6.19, 3-(2-Chloro-6-methyl-4-pyridyl)-2-(3-cyanophenyl)-N-(trans-3-hydroxycyclobutyl)pyrazolo[1,5-a]pyrimidine-5-carboxamide]: the Ki in assay [1] was 0.3 nM; in assay [2], 22 nM; in assay [5], 456 nM; in assay [6], over 1000 nM. Besides, the half-inhibitory concentration (IC50) was 26 nM in assay [3] and 470 nM in assay [4].
With `Cc1cc(-c2c(-c3cccc(C#N)c3)nn3ccc(C(=O)N[C@H]4C[C@@H](O)C4)nc23)cc(Cl)n1` [Example 6.20, 3-(2-Chloro-6-methyl-4-pyridyl)-2-(3-cyanophenyl)-N-(cis-3-hydroxycyclobutyl)pyrazolo[1,5-a]pyrimidine-5-carboxamide], the Ki in assay [1] was 0.7 nM; in assay [2], 19 nM; in assay [5], 204 nM; in assay [6], over 1000 nM. Moreover, the results for the IC50 in assay [3] and in assay [4] were 36.3 nM and 560 nM, respectively.
With `Cc1cc(-c2c(-c3cccc(C#N)c3)nn3ccc(C(=O)NC(C)(C)C#N)nc23)cc(Cl)n1` [Example 6.21, 3-(2-Chloro-6-methyl-4-pyridyl)-N-(1-cyano-1-methyl-ethyl)-2-(3-cyanophenyl)pyrazolo[1,5-a]pyrimidine-5-carboxamide], the Ki in assay [1] was 0.1 nM; in assay [2], 17 nM; in assay [5], 252 nM; in assay [6], over 1000 nM. In addition, the IC50 turned out to be 1.3 nM in assay [3] and 430 nM in assay [4].
In the case of `Cc1cc(-c2c(-c3cccc(C#N)c3)nn3ccc(C(=O)NC(C)(C)CO)nc23)cc(Cl)n1` [Example 6.22, 3-(2-Chloro-6-methyl-4-pyridyl)-2-(3-cyanophenyl)-N-(2-hydroxy-1,1-dimethyl-ethyl)pyrazolo[1,5-a]pyrimidine-5-carboxamide], the inhibition constant Ki is 0.1 nM in assay [1], 5 nM in assay [2], 61 nM in assay [5] and 1910 nM in assay [6]. Also, the IC50 in assay [3] turned out to be 2.5 nM; in assay [4], 100 nM.
For the compound `Cc1cc(-c2c(-c3cccc(C#N)c3)nn3ccc(C(=O)NC(C)(C)C(C)(C)O)nc23)cc(Cl)n1` [Example 6.23, 3-(2-Chloro-6-methyl-4-pyridyl)-2-(3-cyanophenyl)-N-(2-hydroxy-1,1,2-trimethyl-propyl)pyrazolo[1,5-a]pyrimidine-5-carboxamide], the Ki in assay [1] is 0.4 nM; in assay [2], 74 nM; in assay [5], 223 nM; in assay [6] it was over 1000 nM. Also, the figures for the IC50 in assay [3] and in assay [4] were 5.7 nM and 330 nM, respectively.
As for `Cc1cc(-c2c(-c3cccc(C#N)c3)nn3ccc(C(=O)NCCC(C)(C)N)nc23)cc(Cl)n1` [Example 7, N-(3-Amino-3-methyl-butyl)-3-(2-chloro-6-methyl-4-pyridyl)-2-(3-cyanophenyl)pyrazolo[1,5-a]pyrimidine-5-carboxamide], the Ki in assay [1] is 0.4 nM; in assay [2] it was 5 nM; in assay [5], 143 nM; in assay [6], over 1000 nM. Besides, the IC50 is 34 nM in assay [3] and 280 nM in assay [4].
`Cc1cc(-c2c(-c3cccc(C#N)c3)nn3ccc(C(=O)N[C@H]4CNC[C@H]4O)nc23)cc(Cl)n1` [Example 7.2, 3-(2-Chloro-6-methyl-4-pyridyl)-2-(3-cyanophenyl)-N-[cis-(3S,4R)-4-hydroxypyrrolidin-3-yl]pyrazolo[1,5-a]pyrimidine-5-carboxamide]: the inhibition constant (Ki) in assay [1] is 2.6 nM; in assay [2] it was 3 nM; in assay [5], 458 nM; in assay [6], over 1000 nM. Also, the IC50 in assay [3] was found to be 70 nM; in assay [4], 1070 nM.
For `Cc1cc(-c2c(-c3cccc(C#N)c3)nn3ccc(C(=O)NC(C)(C)CN)nc23)cc(Cl)n1` [Example 7.3, N-(2-Amino-1,1-dimethyl-ethyl)-3-(2-chloro-6-methyl-4-pyridyl)-2-(3-cyanophenyl)pyrazolo[1,5-a]pyrimidine-5-carboxamide], the Ki in assay [1] was 2.9 nM; in assay [2] it was 15 nM; in assay [5], 44 nM; in assay [6] it was over 1000 nM. In addition, the figures for the half-maximal inhibitory concentration (IC50) in assay [3] and in assay [4] were 172 nM and 1800 nM, respectively.
Take `Cc1cc(-c2c(-c3cccc(C#N)c3)nn3ccc(C(=O)N[C@H](C)[C@H](O)CO)nc23)cc(Cl)n1` [Example 7.9, 3-(2-Chloro-6-methyl-4-pyridyl)-2-(3-cyanophenyl)-N-[(1 R,2S)-2,3-dihydroxy-1-methyl-propyl]pyrazolo[1,5-a]pyrimidine-5-carboxamide]: the Ki was 0.6 nM in assay [1], 2 nM in assay [2], 160 nM in assay [5] and over 1000 nM in assay [6]. Besides, the figures for the IC50 in assay [3] and in assay [4] were 4 nM and 70 nM, respectively.
Consider `Cc1cc(-c2c(-c3cccc(C#N)c3)nn3ccc(C(=O)N[C@H]4CC[C@H](N)C4)nc23)cc(Cl)n1` [Example 7.14, 3-(2-Chloro-6-methyl-4-pyridyl)-2-(3-cyanophenyl)-N-[(1S,3S)-3-aminocyclopentyl]pyrazolo[1,5-a]pyrimidine-5-carboxamide], for which the Ki in assay [1] is 2.8 nM; in assay [2], 32 nM; in assay [5], 249 nM; in assay [6] it was over 1000 nM. For the same compound, the IC50 in assay [3] was 142 nM; in assay [4] it was 1930 nM.
Consider `Cc1cc(-c2c(-c3cccc(C#N)c3)nn3ccc(C(=O)NCC4(C)CCCNC4)nc23)cc(Cl)n1` (stereo not drawn) [Example 7.18, 3-(2-Chloro-6-methyl-4-pyridyl)-2-(3-cyanophenyl)-N-[(3-methyl-3-piperidyl)methyl]pyrazolo[1,5-a]pyrimidine-5-carboxamide], for which the inhibition constant Ki in assay [1] was 1 nM; in assay [2] it was 14 nM; in assay [5], 20 nM; in assay [6], over 1000 nM. For the same compound, the results for the IC50 in assay [3] and in assay [4] were 19 nM and 470 nM, respectively.
Take `Cc1cc(-c2c(-c3cccc(C#N)c3)nn3ccc(C(=O)N[C@@H](C)[C@H](O)CO)nc23)cc(Cl)n1` [Example 7.19, 3-(2-Chloro-6-methyl-4-pyridyl)-2-(3-cyanophenyl)-N-[(1S,2S)-2,3-dihydroxy-1-methyl-propyl]pyrazolo[1,5-a]pyrimidine-5-carboxamide]: the Ki in assay [1] came out at 0.1 nM; in assay [2] it was 4 nM; in assay [5], 20 nM; in assay [6], 1410 nM. Moreover, the IC50 in assay [3] is 4 nM; in assay [4], 100 nM.
